According to patent EP0908457B1, “3-(1,2-benzisothiazol- and isoxazol-5-Y1)-2,4(1H,3H)-pyrimidinedione or thione and 3-(1,2-benzisothiazol- and isoxazol-5-y1)-4(3H)-pyrimidinone or thione herbicidal agents” (BASF AKTIENGESELLSCHAFT, priority 1997, dated 1999):

Experiments:
Cyperus iria [1] = assay: Preemergence weed control under flooded paddy conditions, CYPIR (Rice Flatsedge); assay type: in vivo; settings: preemergence, flooded paddy, rated three to four weeks after treatment; note: meaning of each grade not given here
[2] = test system: Monochoria vaginalis, Presl.; assay: Postemergence weed control under flooded paddy conditions, MOOVA (Monochoria); assay type: in vivo; settings: rated three to four weeks after treatment
Sagittaria pygmaea, L. [3] = assay: Preemergence weed control under flooded paddy conditions, SAGPY (Arrowhead (Pygmaea)); assay type: in vivo; settings: preemergence, flooded paddy, rated three to four weeks after treatment; note: meaning of each grade not given here
[4] = test system: Oryza sativa, (L.) Tebonnet; assay: Rice tolerance to post-transplant applications under flooded paddy conditions (Example 187), ORYSAT (Rice, Tebonnet); settings: rated three to four weeks after treatment
[5] = test system: Monochoria vaginalis, Presl.; assay: Preemergence weed control under flooded paddy conditions, MOOVA (Monochoria); assay type: in vivo; settings: preemergence, flooded paddy, rated three to four weeks after treatment; note: meaning of each grade not given here
Cyperus iria [6] = assay: Postemergence weed control under flooded paddy conditions, CYPIR (Rice Flatsedge); assay type: in vivo; settings: rated three to four weeks after treatment
[7] = test system: Cyperus serotinus, Rottb.; assay: Postemergence weed control under flooded paddy conditions, CYPSE (Flatsedge); assay type: in vivo; settings: rated three to four weeks after treatment
[8] = test system: Oryza sativa, (L.) Tebonnet; assay: Rice tolerance to post-transplant applications under flooded paddy conditions (Example 188), ORYSAT (Rice, Tebonnet); settings: rated three to four weeks after treatment
[9] = test system: Cyperus serotinus, Rottb.; assay: Preemergence weed control under flooded paddy conditions, CYPSE (Flatsedge); assay type: in vivo; settings: preemergence, rated three to four weeks after treatment; note: meaning of each grade not given here
[10] = test system: Echinochloa oryzoides (Ard.) Fritsch.; assay: Postemergence weed control under flooded paddy conditions, ECHORC (Watergrass (Calif.)); assay type: in vivo; settings: rated three to four weeks after treatment
[11] = test system: Echinochloa oryzoides (Ard.) Fritsch.; assay: Preemergence weed control under flooded paddy conditions, ECHORC (Watergrass (Calif.)); assay type: in vivo; settings: preemergence, flooded paddy, rated three to four weeks after treatment; note: meaning of each grade not given here
Sagittaria pygmaea, L. [12] = assay: Postemergence weed control under flooded paddy conditions, SAGPY (Arrowhead (Pygmaea)); assay type: in vivo; settings: rated three to four weeks after treatment

## Cc1cc(O)c(-c2nsc3ccc(-n4c(=O)cc(C(F)(F)F)n(C)c4=O)cc23)cc1C [Example 11, 3-[3-(6-Hydroxy-3,4-xylyl)-1,2-benzisothiazol-5-yl]-1-methyl-6-(trifluoromethyl)-2,4(1H,3H)-pyrimidinedione]
Cyperus iria [1]; 0.0625 kg/ha
  herbicidal effect rating, CYPIR: 9.0
Cyperus iria [1]; 0.1250 kg/ha
  herbicidal effect rating, CYPIR: 9.0
Cyperus iria [1]; 0.2500 kg/ha
  herbicidal effect rating, CYPIR: 9.0
Cyperus iria [1]; 0.5000 kg/ha
  herbicidal effect rating, CYPIR: 9.0
[2]; Rate 0.0313 kg/ha
  herbicidal effect rating, MOOVA: 9.0
[2]; Rate 0.0625 kg/ha
  herbicidal effect rating, MOOVA: 9.0
[2]; Rate 0.1250 kg/ha
  herbicidal effect rating, MOOVA: 9.0
[2]; Rate 0.2500 kg/ha
  herbicidal effect rating, MOOVA: 9.0
[2]; Rate 0.5000 kg/ha
  herbicidal effect rating, MOOVA: 9.0
Sagittaria pygmaea, L. [3]; 0.0625 kg/ha
  herbicidal effect rating, SAGPY: 0.0
Sagittaria pygmaea, L. [3]; 0.1250 kg/ha
  herbicidal effect rating, SAGPY: 0.0
Sagittaria pygmaea, L. [3]; 0.2500 kg/ha
  herbicidal effect rating, SAGPY: 2.0
Sagittaria pygmaea, L. [3]; 0.5000 kg/ha
  herbicidal effect rating, SAGPY: 9.0
[4]; 0.0625 kg/ha
  herbicidal effect rating, ORYSAT (rice tolerance): 2.0
[4]; 0.1250 kg/ha
  herbicidal effect rating, ORYSAT (rice tolerance): 2.0
[4]; 0.2500 kg/ha
  herbicidal effect rating, ORYSAT (rice tolerance): 3.0
[4]; 0.5000 kg/ha
  herbicidal effect rating, ORYSAT (rice tolerance): 3.0
[5]; 0.0625 kg/ha
  herbicidal effect rating, MOOVA: 9.0
[5]; 0.1250 kg/ha
  herbicidal effect rating, MOOVA: 9.0
[5]; 0.2500 kg/ha
  herbicidal effect rating, MOOVA: 9.0
[5]; 0.5000 kg/ha
  herbicidal effect rating, MOOVA: 9.0
Cyperus iria [6]; Rate 0.0313 kg/ha
  herbicidal effect rating, CYPIR: 8.0
Cyperus iria [6]; Rate 0.0625 kg/ha
  herbicidal effect rating, CYPIR: 9.0
Cyperus iria [6]; Rate 0.1250 kg/ha
  herbicidal effect rating, CYPIR: 9.0
Cyperus iria [6]; Rate 0.2500 kg/ha
  herbicidal effect rating, CYPIR: 9.0
Cyperus iria [6]; Rate 0.5000 kg/ha
  herbicidal effect rating, CYPIR: 9.0
[7]; Rate 0.0313 kg/ha
  herbicidal effect rating, CYPSE: 0.0
[7]; Rate 0.0625 kg/ha
  herbicidal effect rating, CYPSE: 0.0
[7]; Rate 0.1250 kg/ha
  herbicidal effect rating, CYPSE: 0.0
[7]; Rate 0.2500 kg/ha
  herbicidal effect rating, CYPSE: 0.0
[7]; Rate 0.5000 kg/ha
  herbicidal effect rating, CYPSE: 0.0
[8]; Rate 0.0313 kg/ha
  herbicidal effect rating, ORYSAT (rice tolerance): 0.0
[8]; Rate 0.0625 kg/ha
  herbicidal effect rating, ORYSAT (rice tolerance): 0.0
[8]; Rate 0.1250 kg/ha
  herbicidal effect rating, ORYSAT (rice tolerance): 0.0
[8]; Rate 0.2500 kg/ha
  herbicidal effect rating, ORYSAT (rice tolerance): 1.0
[8]; Rate 0.5000 kg/ha
  herbicidal effect rating, ORYSAT (rice tolerance): 1.0
[9]; 0.0625 kg/ha
  herbicidal effect rating, CYPSE: 2.0
[9]; 0.1250 kg/ha
  herbicidal effect rating, CYPSE: 2.0
[9]; 0.2500 kg/ha
  herbicidal effect rating, CYPSE: 2.0
[9]; 0.5000 kg/ha
  herbicidal effect rating, CYPSE: 7.0
[10]; Rate 0.0313 kg/ha
  herbicidal effect rating, ECHORC: 0.0
[10]; Rate 0.0625 kg/ha
  herbicidal effect rating, ECHORC: 0.0
[10]; Rate 0.1250 kg/ha
  herbicidal effect rating, ECHORC: 2.0
[10]; Rate 0.2500 kg/ha
  herbicidal effect rating, ECHORC: 4.0
[10]; Rate 0.5000 kg/ha
  herbicidal effect rating, ECHORC: 7.0
[11]; 0.0625 kg/ha
  herbicidal effect rating, ECHORC: 7.0
[11]; 0.1250 kg/ha
  herbicidal effect rating, ECHORC: 8.0
[11]; 0.2500 kg/ha
  herbicidal effect rating, ECHORC: 8.0
[11]; 0.5000 kg/ha
  herbicidal effect rating, ECHORC: 9.0
Sagittaria pygmaea, L. [12]; Rate 0.0313 kg/ha
  herbicidal effect rating, SAGPY: 0.0
Sagittaria pygmaea, L. [12]; Rate 0.0625 kg/ha
  herbicidal effect rating, SAGPY: 0.0
Sagittaria pygmaea, L. [12]; Rate 0.1250 kg/ha
  herbicidal effect rating, SAGPY: 0.0
Sagittaria pygmaea, L. [12]; Rate 0.2500 kg/ha
  herbicidal effect rating, SAGPY: 4.0
Sagittaria pygmaea, L. [12]; Rate 0.5000 kg/ha
  herbicidal effect rating, SAGPY: 7.0

## COC(=O)COc1cc(C)c(C)cc1-c1nsc2ccc(-n3c(=O)cc(C(F)(F)F)n(C)c3=O)cc12 [Example 12, Methyl {{6-{5-[3,6-dihydro-3-methyl-4-(trifluoromethyl)-2,6-dioxo-1(2H)-pyrimidinyl]-1,2-benzisothiazol-3-yl}-3,4-xylyl}oxy}acetate]
Cyperus iria [1]; 0.0313 kg/ha
  herbicidal effect rating, CYPIR: 9.0
Cyperus iria [1]; 0.0625 kg/ha
  herbicidal effect rating, CYPIR: 9.0
Cyperus iria [1]; 0.1250 kg/ha
  herbicidal effect rating, CYPIR: 9.0
Cyperus iria [1]; 0.2500 kg/ha
  herbicidal effect rating, CYPIR: 9.0
Cyperus iria [1]; 0.5000 kg/ha
  herbicidal effect rating, CYPIR: 9.0
[2]; Rate 0.0313 kg/ha
  herbicidal effect rating, MOOVA: 9.0
[2]; Rate 0.0625 kg/ha
  herbicidal effect rating, MOOVA: 9.0
[2]; Rate 0.1250 kg/ha
  herbicidal effect rating, MOOVA: 9.0
[2]; Rate 0.2500 kg/ha
  herbicidal effect rating, MOOVA: 9.0
[2]; Rate 0.5000 kg/ha
  herbicidal effect rating, MOOVA: 9.0
Sagittaria pygmaea, L. [3]; 0.0313 kg/ha
  herbicidal effect rating, SAGPY: 0.0
Sagittaria pygmaea, L. [3]; 0.0625 kg/ha
  herbicidal effect rating, SAGPY: 2.0
Sagittaria pygmaea, L. [3]; 0.1250 kg/ha
  herbicidal effect rating, SAGPY: 4.0
Sagittaria pygmaea, L. [3]; 0.2500 kg/ha
  herbicidal effect rating, SAGPY: 9.0
Sagittaria pygmaea, L. [3]; 0.5000 kg/ha
  herbicidal effect rating, SAGPY: 9.0
[4]; 0.0313 kg/ha
  herbicidal effect rating, ORYSAT (rice tolerance): 4.0
[4]; 0.0625 kg/ha
  herbicidal effect rating, ORYSAT (rice tolerance): 7.0
[4]; 0.1250 kg/ha
  herbicidal effect rating, ORYSAT (rice tolerance): 7.0
[4]; 0.2500 kg/ha
  herbicidal effect rating, ORYSAT (rice tolerance): 8.0
[4]; 0.5000 kg/ha
  herbicidal effect rating, ORYSAT (rice tolerance): 9.0
[5]; 0.0313 kg/ha
  herbicidal effect rating, MOOVA: 9.0
[5]; 0.0625 kg/ha
  herbicidal effect rating, MOOVA: 9.0
[5]; 0.1250 kg/ha
  herbicidal effect rating, MOOVA: 9.0
[5]; 0.2500 kg/ha
  herbicidal effect rating, MOOVA: 9.0
[5]; 0.5000 kg/ha
  herbicidal effect rating, MOOVA: 9.0
Cyperus iria [6]; Rate 0.0313 kg/ha
  herbicidal effect rating, CYPIR: 9.0
Cyperus iria [6]; Rate 0.0625 kg/ha
  herbicidal effect rating, CYPIR: 9.0
Cyperus iria [6]; Rate 0.1250 kg/ha
  herbicidal effect rating, CYPIR: 9.0
Cyperus iria [6]; Rate 0.2500 kg/ha
  herbicidal effect rating, CYPIR: 9.0
Cyperus iria [6]; Rate 0.5000 kg/ha
  herbicidal effect rating, CYPIR: 9.0
[7]; Rate 0.0313 kg/ha
  herbicidal effect rating, CYPSE: 0.0
[7]; Rate 0.0625 kg/ha
  herbicidal effect rating, CYPSE: 0.0
[7]; Rate 0.5000 kg/ha
  herbicidal effect rating, CYPSE: 2.0
[8]; Rate 0.0313 kg/ha
  herbicidal effect rating, ORYSAT (rice tolerance): 4.0
[8]; Rate 0.0625 kg/ha
  herbicidal effect rating, ORYSAT (rice tolerance): 4.0
[8]; Rate 0.1250 kg/ha
  herbicidal effect rating, ORYSAT (rice tolerance): 7.0
[8]; Rate 0.2500 kg/ha
  herbicidal effect rating, ORYSAT (rice tolerance): 7.0
[8]; Rate 0.5000 kg/ha
  herbicidal effect rating, ORYSAT (rice tolerance): 7.0
[9]; 0.0313 kg/ha
  herbicidal effect rating, CYPSE: 6.0
[9]; 0.0625 kg/ha
  herbicidal effect rating, CYPSE: 7.0
[9]; 0.1250 kg/ha
  herbicidal effect rating, CYPSE: 8.0
[9]; 0.2500 kg/ha
  herbicidal effect rating, CYPSE: 7.0
[9]; 0.5000 kg/ha
  herbicidal effect rating, CYPSE: 7.0
[10]; Rate 0.0313 kg/ha
  herbicidal effect rating, ECHORC: 0.0
[10]; Rate 0.0625 kg/ha
  herbicidal effect rating, ECHORC: 2.0
[10]; Rate 0.1250 kg/ha
  herbicidal effect rating, ECHORC: 6.0
[10]; Rate 0.2500 kg/ha
  herbicidal effect rating, ECHORC: 9.0
[10]; Rate 0.5000 kg/ha
  herbicidal effect rating, ECHORC: 9.0
[11]; 0.0313 kg/ha
  herbicidal effect rating, ECHORC: 9.0
[11]; 0.0625 kg/ha
  herbicidal effect rating, ECHORC: 9.0
[11]; 0.1250 kg/ha
  herbicidal effect rating, ECHORC: 9.0
[11]; 0.2500 kg/ha
  herbicidal effect rating, ECHORC: 9.0
[11]; 0.5000 kg/ha
  herbicidal effect rating, ECHORC: 9.0
Sagittaria pygmaea, L. [12]; Rate 0.0313 kg/ha
  herbicidal effect rating, SAGPY: 0.0
Sagittaria pygmaea, L. [12]; Rate 0.0625 kg/ha
  herbicidal effect rating, SAGPY: 0.0
Sagittaria pygmaea, L. [12]; Rate 0.1250 kg/ha
  herbicidal effect rating, SAGPY: 0.0
Sagittaria pygmaea, L. [12]; Rate 0.2500 kg/ha
  herbicidal effect rating, SAGPY: 4.0
Sagittaria pygmaea, L. [12]; Rate 0.5000 kg/ha
  herbicidal effect rating, SAGPY: 9.0
